From PubChem BioAssay (NCI)
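Five concentrations, 48 hours, 96-well plates. The concentration for 50% growth inhibition is given as GI50. TGI: concentration producing complete growth inhibition.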

What was measured:
Test in all cases: NCI-60 cell line screen, 48 h
786-0 renal = test system: 786-0 renal
A498 renal = test system: A498 renal
A549 NSCLC = test system: A549 NSCLC
ACHN renal = test system: ACHN renal
BT-549 breast = test system: BT-549 breast
CAKI-1 renal = test system: CAKI-1 renal
COLO 205 colon = test system: COLO 205 colon
DU-145 prostate = test system: DU-145 prostate
EKVX NSCLC = test system: EKVX NSCLC
HCT-116 colon = test system: HCT-116 colon
HCT-15 colon = test system: HCT-15 colon
HL-60(TB) leukemia = test system: HL-60(TB) leukemia
HOP-62 NSCLC = test system: HOP-62 NSCLC
HOP-92 NSCLC = test system: HOP-92 NSCLC
HS 578T breast = test system: HS 578T breast
HT29 colon = test system: HT29 colon
IGROV1 ovarian = test system: IGROV1 ovarian
K-562 leukemia = test system: K-562 leukemia
KM12 colon = test system: KM12 colon
LOX IMVI melanoma = test system: LOX IMVI melanoma
M14 melanoma = test system: M14 melanoma
MCF7 breast = test system: MCF7 breast
MDA-MB-231 breast = test system: MDA-MB-231 breast
MDA-MB-435 = test system: MDA-MB-435
MOLT-4 leukemia = test system: MOLT-4 leukemia
NCI-H226 lung = test system: NCI-H226 lung
NCI-H23 lung = test system: NCI-H23 lung
NCI-H460 lung = test system: NCI-H460 lung
NCI-H522 lung = test system: NCI-H522 lung
NCI/ADR-RES ovarian = test system: NCI/ADR-RES ovarian
OVCAR-3 ovarian = test system: OVCAR-3 ovarian
OVCAR-4 ovarian = test system: OVCAR-4 ovarian
OVCAR-5 ovarian = test system: OVCAR-5 ovarian
OVCAR-8 ovarian = test system: OVCAR-8 ovarian
PC-3 prostate = test system: PC-3 prostate
RPMI-8226 leukemia = test system: RPMI-8226 leukemia
RXF 393 renal = test system: RXF 393 renal
SF-268 CNS = test system: SF-268 CNS
SF-295 CNS = test system: SF-295 CNS
SF-539 CNS = test system: SF-539 CNS
SK-MEL-2 melanoma = test system: SK-MEL-2 melanoma
SK-MEL-28 melanoma = test system: SK-MEL-28 melanoma
SK-MEL-5 melanoma = test system: SK-MEL-5 melanoma
SK-OV-3 ovarian = test system: SK-OV-3 ovarian
SN12C renal = test system: SN12C renal
SNB-19 CNS = test system: SNB-19 CNS
SNB-75 CNS = test system: SNB-75 CNS
SR leukemia = test system: SR leukemia
SW-620 colon = test system: SW-620 colon
UACC-257 melanoma = test system: UACC-257 melanoma
UACC-62 melanoma = test system: UACC-62 melanoma
UO-31 renal = test system: UO-31 renal
CCRF-CEM leukemia = test system: CCRF-CEM leukemia
HCC-2998 colon = test system: HCC-2998 colon
MALME-3M melanoma = test system: MALME-3M melanoma
TK-10 renal = test system: TK-10 renal
U251 CNS = test system: U251 CNS

COc1ccc(-c2cn3ccnc3c(-c3ccc(Cl)cc3)n2)cc1
GI50 (786-0 renal): 11.7 µM | TGI (786-0 renal): > 100 µM | GI50 (A498 renal): 2.31 µM | TGI (A498 renal): 9.87 µM | GI50 (A549 NSCLC): 7.49 µM | TGI (A549 NSCLC): 99.3 µM | GI50 (ACHN renal): 10.5 µM | TGI (ACHN renal): 47 µM | GI50 (BT-549 breast): 16.5 µM | TGI (BT-549 breast): > 100 µM | GI50 (CAKI-1 renal): 2.9 µM | TGI (CAKI-1 renal): 11 µM | GI50 (COLO 205 colon): 5.49 µM | TGI (COLO 205 colon): > 100 µM | GI50 (DU-145 prostate): 11.7 µM | TGI (DU-145 prostate): > 100 µM | GI50 (EKVX NSCLC): 2.39 µM | TGI (EKVX NSCLC): > 100 µM | GI50 (HCT-116 colon): > 100 µM | TGI (HCT-116 colon): > 100 µM | GI50 (HCT-15 colon): 3.16 µM | TGI (HCT-15 colon): > 100 µM | GI50 (HL-60(TB) leukemia): 5.14 µM | TGI (HL-60(TB) leukemia): > 100 µM | GI50 (HOP-62 NSCLC): 16.3 µM | TGI (HOP-62 NSCLC): > 100 µM | GI50 (HOP-92 NSCLC): 10.2 µM | TGI (HOP-92 NSCLC): 48.4 µM | GI50 (HS 578T breast): 3.83 µM | TGI (HS 578T breast): 48.2 µM | GI50 (HT29 colon): 6.66 µM | TGI (HT29 colon): > 100 µM | GI50 (IGROV1 ovarian): 7.46 µM | TGI (IGROV1 ovarian): > 100 µM | GI50 (K-562 leukemia): 4.01 µM | TGI (K-562 leukemia): > 100 µM | GI50 (KM12 colon): 4.68 µM | TGI (KM12 colon): > 100 µM | GI50 (LOX IMVI melanoma): 7.95 µM | TGI (LOX IMVI melanoma): > 100 µM | GI50 (M14 melanoma): 5.95 µM | TGI (M14 melanoma): > 100 µM | GI50 (MCF7 breast): 5.56 µM | TGI (MCF7 breast): > 100 µM | GI50 (MDA-MB-231 breast): 4.13 µM | TGI (MDA-MB-231 breast): 55.9 µM | GI50 (MDA-MB-435): 2.56 µM | TGI (MDA-MB-435): 8.62 µM | GI50 (MOLT-4 leukemia): 4.9 µM | TGI (MOLT-4 leukemia): > 100 µM | GI50 (NCI-H226 lung): 42.8 µM | TGI (NCI-H226 lung): > 100 µM | GI50 (NCI-H23 lung): 4.71 µM | TGI (NCI-H23 lung): 40.3 µM | GI50 (NCI-H460 lung): 10.8 µM | TGI (NCI-H460 lung): > 100 µM | GI50 (NCI-H522 lung): > 100 µM | TGI (NCI-H522 lung): > 100 µM | GI50 (NCI/ADR-RES ovarian): 3.77 µM | TGI (NCI/ADR-RES ovarian): 28.2 µM | GI50 (OVCAR-3 ovarian): 3.19 µM | TGI (OVCAR-3 ovarian): 71.8 µM | GI50 (OVCAR-4 ovarian): 5.61 µM | TGI (OVCAR-4 ovarian): > 100 µM | GI50 (OVCAR-5 ovarian): 9.52 µM | TGI (OVCAR-5 ovarian): > 100 µM | GI50 (OVCAR-8 ovarian): 15 µM | TGI (OVCAR-8 ovarian): > 100 µM | GI50 (PC-3 prostate): 14.5 µM | TGI (PC-3 prostate): > 100 µM | GI50 (RPMI-8226 leukemia): 4.58 µM | TGI (RPMI-8226 leukemia): 91.3 µM | GI50 (RXF 393 renal): 28.2 µM | TGI (RXF 393 renal): > 100 µM | GI50 (SF-268 CNS): 10.6 µM | TGI (SF-268 CNS): 64.8 µM | GI50 (SF-295 CNS): 23.1 µM | TGI (SF-295 CNS): 85.3 µM | GI50 (SF-539 CNS): 8.97 µM | TGI (SF-539 CNS): 58 µM | GI50 (SK-MEL-2 melanoma): 35.2 µM | TGI (SK-MEL-2 melanoma): > 100 µM | GI50 (SK-MEL-28 melanoma): 5.37 µM | TGI (SK-MEL-28 melanoma): > 100 µM | GI50 (SK-MEL-5 melanoma): 4.06 µM | TGI (SK-MEL-5 melanoma): 21.1 µM | GI50 (SK-OV-3 ovarian): 20.7 µM | TGI (SK-OV-3 ovarian): > 100 µM | GI50 (SN12C renal): 10.4 µM | TGI (SN12C renal): 46 µM | GI50 (SNB-19 CNS): 14.4 µM | TGI (SNB-19 CNS): > 100 µM | GI50 (SNB-75 CNS): 6.85 µM | TGI (SNB-75 CNS): > 100 µM | GI50 (SR leukemia): 1.71 µM | TGI (SR leukemia): > 100 µM | GI50 (SW-620 colon): 4.51 µM | TGI (SW-620 colon): > 100 µM | GI50 (UACC-257 melanoma): 6.81 µM | TGI (UACC-257 melanoma): 48 µM | GI50 (UACC-62 melanoma): 19.4 µM | TGI (UACC-62 melanoma): > 100 µM | GI50 (UO-31 renal): 33.1 µM | TGI (UO-31 renal): > 100 µM

C=C1c2nc3ccccc3n2C=C(c2ccccc2)N1c1ccc(C)cc1
TGI (786-0 renal): > 100 µM | TGI (A498 renal): > 100 µM | TGI (A549 NSCLC): > 100 µM | TGI (ACHN renal): > 100 µM | TGI (BT-549 breast): > 100 µM | TGI (CAKI-1 renal): > 100 µM | TGI (CCRF-CEM leukemia): > 100 µM | TGI (COLO 205 colon): > 100 µM | TGI (DU-145 prostate): > 100 µM | TGI (EKVX NSCLC): > 100 µM | TGI (HCC-2998 colon): 36.7 µM | TGI (HCT-116 colon): > 100 µM | TGI (HCT-15 colon): > 100 µM | TGI (HOP-92 NSCLC): > 100 µM | TGI (IGROV1 ovarian): > 100 µM | TGI (K-562 leukemia): > 100 µM | TGI (KM12 colon): 56.1 µM | TGI (LOX IMVI melanoma): > 100 µM | TGI (M14 melanoma): > 100 µM | TGI (MALME-3M melanoma): > 100 µM | TGI (MCF7 breast): > 100 µM | TGI (MDA-MB-231 breast): > 100 µM | TGI (MDA-MB-435): > 100 µM | TGI (MOLT-4 leukemia): > 100 µM | TGI (NCI-H226 lung): > 100 µM | TGI (NCI-H23 lung): > 100 µM | TGI (NCI-H460 lung): > 100 µM | TGI (NCI-H522 lung): > 100 µM | TGI (NCI/ADR-RES ovarian): > 100 µM | TGI (OVCAR-3 ovarian): > 100 µM | TGI (OVCAR-4 ovarian): > 100 µM | TGI (OVCAR-5 ovarian): > 100 µM | TGI (OVCAR-8 ovarian): > 100 µM | TGI (PC-3 prostate): > 100 µM | TGI (RPMI-8226 leukemia): > 100 µM | TGI (RXF 393 renal): > 100 µM | TGI (SF-295 CNS): > 100 µM | TGI (SF-539 CNS): > 100 µM | TGI (SK-MEL-2 melanoma): > 100 µM | TGI (SK-MEL-5 melanoma): > 100 µM | TGI (SK-OV-3 ovarian): > 100 µM | TGI (SN12C renal): > 100 µM | TGI (SNB-19 CNS): > 100 µM | TGI (SNB-75 CNS): > 100 µM | TGI (SR leukemia): > 100 µM | TGI (SW-620 colon): > 100 µM | TGI (TK-10 renal): > 100 µM | TGI (U251 CNS): > 100 µM | TGI (UACC-257 melanoma): > 100 µM | TGI (UACC-62 melanoma): > 100 µM | TGI (UO-31 renal): > 100 µM
